From PubChem BioAssay AID179 (DTP/NCI, 2004)
Where “and” joins values, the source holds several entries; their conditions need not be identical. Equal values may be shown once. Calls of active or inactive are those of the source.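 How the source made its calls: active means compounds giving half or more protection of infected cells from virus-caused growth loss, again on retest; inactive means the rest.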

Tested on: CEM cells HIV-1 protection, formazan growth assay
Test: NCI AIDS Antiviral Assay
Settings: for IC50: measured here: growth of uninfected CEM cells
Outline: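 Protection of CEM cells against HIV-1 was scored from cell growth (soluble formazan) across five concentrations, with parallel uninfected cells. Lack of protection may reflect toxicity.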

| Compound | EC50 [µM] | IC50 | outcome |
| --- | --- | --- | --- |
| CCN(CC)c1c(C)nnc2c(-c3ccccc3)cnn12 | > 18.6 | > 18.6 µM |  |
| NN1C(=O)CS/C1=N\C(=S)N/N=C1/SCC(=O)N1N | 57.5 | 85.1 µM |  |
| O=C1CCCC2=C1CC1=C(CCCC1=O)N2c1cccc([N+](=O)[O-])c1 | > 186 | 170 µM |  |
| O/N=C1/CCC/C1=C\c1ccccc1 |  |  | inactive |
| COc1ccc(CNC(=O)NCn2cc(-c3ccccc3)nn2)cc1 | > 200 | > 200 µM |  |
| COc1ccc(/C=C(\C#N)C(=O)c2ccccc2)cc1 | > 97.7 | 56.2 µM |  |
| CCn1c2ccc(C(=O)CCCN3CCCCC3)cc2c2cc(C(=O)CCCN3CCCCC3)ccc21 | > 43.7 | 0.229 µM |  |
| CCCCn1c2c(c3ccccc3c1=O)C(=O)c1ccccc1-2 | > 69.2 | 33.9 µM |  |
| CN(C)CCN1C(=O)CN=C(c2ccccc2Cl)c2cc(Cl)ccc21 | > 200 | 117 µM |  |
| Clc1ccc(OCc2nnc(CCCCCCCCc3nnc(COc4ccc(Cl)cc4Cl)o3)o2)c(Cl)c1 | > 200 | 129 µM |  |
| COc1ccccc1CC1(O)OC(=O)c2ccccc21 (stereo unspecified) | > 200 | > 200 µM |  |
| c1ccc(C2=NOC3(c4ccccc4)SC4CCCCC4CN23)cc1 (stereo unspecified) | > 10.7 | > 10.7 µM |  |
| CC(=O)OC1=NN=C2COC(c3ccccc3OC(C)=O)=NN2C1 | > 200 | 115 µM |  |
| CC1(C)OC2C(=O)C=C(COCc3ccccc3)C2O1 (stereo unspecified) | > 200 | 28.2 µM and 10 µM |  |
| CC(C)(C)NC(=O)CCC1C(C(=O)NC(C)(C)C)C2(Cl)C(Cl)=C(Cl)C1(Cl)C2(Cl)Cl (stereo unspecified) | > 200 | > 200 µM |  |
| O=C(OC[C@H]1C[C@H]2C(=O)OCCC[C@H]2O1)c1ccccc1 | > 200 | > 200 µM |  |
| CC1=C2C(=O)c3ccccc3C2=C(C)S(=O)(=O)O1 | > 955 | 832 µM |  |
| O=C(Nc1nc(C23CC4CC(CC(C4)C2)C3)cs1)c1cc2cc([N+](=O)[O-])ccc2oc1=O | > 200 | 178 µM |  |
| S=c1nc2sc3c(c2c(Nc2ccccc2)[nH]1)CCCC3 | > 200 | > 200 µM |  |
| O=C(CCc1ccc(O)cc1)NCCc1cccc(O)c1 | 43.7 | > 100 µM |  |
| COc1ccc(C2OC(=O)c3ccc4ccccc4c32)c(C)c1 (stereo unspecified) | > 44.7 | 24.5 µM |  |
| COc1ccc(-c2c(C)c(C)nc(Cl)c2C#N)c(OCc2ccccc2)c1OC |  |  | inactive |
| S=C1c2cc(Cl)ccc2NC(=NC2CCCC2)C2CSCN12 (stereo unspecified) | > 200 | 33.9 µM |  |
| Fc1c(F)c(F)c2c(c1F)CSc1nc3ccccc3n1-2 | > 200 | > 200 µM |  |
